According to US5668147A, “Quinolinecarboxylic acid derivatives and salts thereof” (Kaken Pharmaceutical Co., Ltd., priority 1993, dated 1997):

Tests used:
E. faecalis 1373 = experiment: Antibacterial activity, MIC by agar plate dilution assay; assay type: cell-based; parameters: unit not given here
Experimental: (§1) Antibacterial activities of the compounds of the present invention were measured as the minimum inhibitory concentration (MIC) by the agar plate dilution assay method according to the standard method of Japan Society of Chemotherapy. Ofloxacin (OFLX) was used as the control compound.

S. aureus KP90-3 (MRSA) = experiment: as above; assay type: cell-based; parameters: unit not given here
Experimental: as §1

S. aureus Smith = experiment: as above; assay type: cell-based; parameters: unit not given here
Experimental: as §1

E. coli JC3 = experiment: as above; assay type: cell-based; parameters: unit not given here
Experimental: as §1

S. pyogenes Cook = experiment: as above; assay type: cell-based; parameters: unit not given here
Experimental: as §1

S. aureus JS1 (MRSA) = experiment: as above; assay type: cell-based; parameters: unit not given here
Experimental: as §1

[1] = Acute toxicity test, oral, ICR mice; settings: mouse, in vivo, 6-week-old ICR mice, orally, suspended in 0.5% methylcellulose
Experimental: Acute toxicity test was performed using 6-week-old ICR mice. The compound of Example 21a was used as the tested compound. The compound was suspended in a 0.5% solution of methylcellulose, and the suspension was orally administered. The value of LD50 was at least 4000 mg/kg.

[2] = system: peripheral blood erythrocytes; experiment: Mutagenicity, micronucleus assay in mice; assay type: in vivo; settings: 8-week-old ICR mice; abdominally administered in olive oil; dose 200 mg/kg; before and 24, 48 and 72 hours after
Experimental: Micronucleus assay was performed using 8-week-old ICR mice to confirm whether the compounds have mutagenicity. The compound of Example 21a was suspended in olive oil, and the suspension was abdominally administered to mice. The peripheral blood was obtained before and 24, 48 and 72 hours after the administration, and smeared specimens of the peripheral blood were prepared by acridine orange dying. In each specimen, 1000 erythrocytes were observed and frequency of occurrence of micronucleus was recorded. The frequency was not changed even in dose 200 mg/kg.

Row | Structure (SMILES) | Minimum Inhibitory Concentration (MIC) (E. faecalis 1373) | Minimum Inhibitory Concentration (MIC) (S. aureus KP90-3 (MRSA)) | Minimum Inhibitory Concentration (MIC) (S. aureus Smith) | Minimum Inhibitory Concentration (MIC) (E. coli JC3) | Minimum Inhibitory Concentration (MIC) (S. pyogenes Cook) | Minimum Inhibitory Concentration (MIC) (S. aureus JS1 (MRSA)) | LD50 [1] | frequency of occurrence of micronucleus [2]
1 | O=C(O)c1cn(C2CC2)c2c(F)c(N3C[C@@H](CO)[C@H](C(F)(F)F)C3)c(F)cc2c1=O (relative stereo) [Example 6a, 1-Cyclopropyl-6,8-difluoro-1,4-dihydro-7-(trans-3-hydroxymethyl-4-trifluoromethyl-1-pyrrolidinyl)-4-oxoquinoline-3-carboxylic acid] | 0.39 | 3.13 | 0.025 | 0.39 | 0.39 | 0.05 | – | –
2 | N[C@@H]1CN(c2nc3c(cc2F)c(=O)c(C(=O)O)cn3-c2ccc(F)cc2F)C[C@H]1C(F)(F)F (relative stereo) [Example 35a] | 0.78 | 25 | 0.05 | 0.78 | 0.39 | 0.1 | – | –
3 | N[C@@H]1CN(c2c(F)cc3c(=O)c(C(=O)O)cn(C4CC4)c3c2F)C[C@H]1C(F)(F)F (relative stereo) [Example 23a] | 0.78 | 12.5 | 0.1 | 0.2 | 0.78 | 0.2 | – | –
4 | NC[C@@H]1CN(c2c(F)c(N)c3c(=O)c(C(=O)O)cn(C4CC4)c3c2F)C[C@H]1C(F)(F)F (relative stereo) [Example 18a] | 0.05 | 1.56 | ≤ 0.006 | 0.025 | 0.013 | ≤ 0.006 | – | –
5 | Cl.NC[C@@H]1CN(c2c(F)cc3c(=O)c(C(=O)O)cn(C4CC4)c3c2F)C[C@H]1C(F)(F)F (relative stereo) [Example 12a, 7-(Trans-3-aminomethyl-4-trifluoromethyl-1-pyrrolidinyl)-1-cyclopropyl-6,8-difluoro-1,4-dihydro-4-oxoquinoline-3-carboxylic acid hydrochloride] | 0.1 | 0.78 | 0.013 | 0.05 | 0.025 | 0.025 | – | –
6 | COc1c(N2C[C@@H](CN)[C@H](C(F)(F)F)C2)c(F)cc2c(=O)c(C(=O)O)cn(C3CC3)c12 (relative stereo) [Example 21a] | 0.1 | 0.78 | 0.013 | 0.1 | 0.025 | 0.013 | ≥ 4000 mg/kg | not changed
7 | Nc1c(F)c(N2C[C@@H](CO)[C@H](C(F)(F)F)C2)c(F)c2c1c(=O)c(C(=O)O)cn2C1CC1 (relative stereo) [Example 8a] | 0.2 | 3.13 | ≤ 0.006 | 0.2 | 0.39 | 0.013 | – | –
8 | Nc1c(F)c(N2C[C@@H](N)[C@H](C(F)(F)F)C2)c(F)c2c1c(=O)c(C(=O)O)cn2C1CC1 (relative stereo) [Example 29a] | 0.39 | 25 | 0.025 | 0.05 | 0.2 | 0.05 | – | –
9 | CC1COc2c(N3CCN(C)CC3)c(F)cc3c(=O)c(C(=O)O)cn1c23 (centres unmarked) [OFLX, Ofloxacin, reference compound] | 1.56 | 25 | 0.2 | 0.1 | 0.78 | 0.39 | – | –
10 | O=C(O)c1cn(C2CC2)c2c(Cl)c(N3C[C@@H](CO)[C@H](C(F)(F)F)C3)c(F)cc2c1=O (relative stereo) [Example 7a] | 0.2 | 0.39 | ≤ 0.006 | 0.39 | 0.1 | 0.013 | – | –
11 | NC[C@@H]1CN(c2c(F)cc3c(=O)c(C(=O)O)cn(C4CC4)c3c2Cl)C[C@H]1C(F)(F)F (relative stereo) [Example 15a] | 0.1 | 0.39 | ≤ 0.006 | 0.05 | 0.013 | 0.013 | – | –
12 | COc1c(N2C[C@@H](CO)[C@H](C(F)(F)F)C2)c(F)cc2c(=O)c(C(=O)O)cn(C3CC3)c12 (relative stereo) [Example 9a, 1-Cyclopropyl-6-fluoro-1,4-dihydro-7-(trans-3-hydroxymethyl-4-trifluoromethyl-1-pyrrolidinyl)-8-methoxy-4-oxoquinoline-3-carboxylic acid] | 0.2 | 0.78 | ≤ 0.006 | 0.39 | 0.2 | 0.013 | – | –
13 | N[C@@H]1CN(c2c(F)cc3c(=O)c(C(=O)O)cn(C4CC4)c3c2Cl)C[C@H]1C(F)(F)F (relative stereo) [Example 26a] | 0.39 | 3.13 | 0.05 | 0.2 | 0.39 | 0.05 | – | –
14 | COc1c(N2C[C@@H](N)[C@H](C(F)(F)F)C2)c(F)cc2c(=O)c(C(=O)O)cn(C3CC3)c12 (relative stereo) [Example 31a] | 0.39 | 3.13 | 0.05 | 0.39 | 0.39 | 0.05 | – | –
